Data as given in the supplement of paper PMC10307832.

Assays:
Test in all cases: relative viability (nuclei count vs DMSO), 5 days (fraction); higher = more cells survive
201T = system: 201T
How it was run: (§1)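 Dosing by pin tool came one day after lung cancer cell lines were seeded in 1536-well plates, using either one drug or a fixed anchor-drug dose plus five library-drug doses (not always all listed) in √10 steps. After 5 days, nuclei were counted on 4× images. Relative viability is treated-well nuclei count divided by vehicle-well nuclei count, and values are medians of duplicate plates.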

COR-L 105 = system: COR-L 105
How it was run: as §1

ChaGo-K-1 = system: ChaGo-K-1
How it was run: as §1

EPLC-272H = system: EPLC-272H
How it was run: as §1

H3255 = system: H3255
How it was run: as §1

HCC-78 = system: HCC-78
How it was run: as §1

HCC-827 = system: HCC-827
How it was run: as §1

LC-2-ad = system: LC-2-ad
How it was run: as §1

LCLC-97TM1 = system: LCLC-97TM1
How it was run: as §1

NCI-H1666 = system: NCI-H1666
How it was run: as §1

NCI-H1915 = system: NCI-H1915
How it was run: as §1

NCI-H2087 = system: NCI-H2087
How it was run: as §1

NCI-H2126 = system: NCI-H2126
How it was run: as §1

NCI-H2347 = system: NCI-H2347
How it was run: as §1

NCI-H23 = system: NCI-H23
How it was run: as §1

NCI-H2405 = system: NCI-H2405
How it was run: as §1

NCI-H520 = system: NCI-H520
How it was run: as §1

NCI-H647 = system: NCI-H647
How it was run: as §1

NCI-H650 = system: NCI-H650
How it was run: as §1

NCI-H661 = system: NCI-H661
How it was run: as §1

PC-14 = system: PC-14
How it was run: as §1

RERF-LC-KJ = system: RERF-LC-KJ
How it was run: as §1

With `O=c1cc(N2CCOCC2)oc2c(-c3cccc4c3sc3ccccc34)cccc12` + COc1cc2c(Oc3ccc(NC(=O)C4(C(=O)Nc5ccc(F)cc5)CC4)cc3F)ccnc2cc1OCCCN1CCOCC1 [Foretinib] (partner 0.25 µM) the relative viability (201T; first compound 0.01 µM) was 1.1, the relative viability (201T; first compound 0.03162 µM) was 1.13 and the relative viability (201T; first compound 0.1 µM) was 1.1. The relative viability (201T; first compound 0.3162 µM) was 0.963, the relative viability (201T; first compound 1 µM) was 1.06 and the relative viability (COR-L 105; first compound 0.01 µM) was 0.986. The relative viability (COR-L 105; first compound 0.03162 µM) was 1.1, the relative viability (COR-L 105; first compound 0.1 µM) was 0.681 and the relative viability (COR-L 105; first compound 0.3162 µM) was 1.04. For the same molecule, the relative viability (COR-L 105; first compound 1 µM) was 1.21, the relative viability (ChaGo-K-1; first compound 0.01 µM) was 0.901 and the relative viability (ChaGo-K-1; first compound 0.03162 µM) was 1.01. For the same molecule, the relative viability (ChaGo-K-1; first compound 0.1 µM) was 0.948, the relative viability (ChaGo-K-1; first compound 0.3162 µM) was 0.869 and the relative viability (ChaGo-K-1; first compound 1 µM) was 0.96. For the same molecule, the relative viability (EPLC-272H; first compound 0.01 µM) was 0.607, the relative viability (EPLC-272H; first compound 0.03162 µM) was 0.667 and the relative viability (EPLC-272H; first compound 0.3162 µM) was 0.734. For the same molecule, the relative viability (EPLC-272H; first compound 1 µM) was 0.688, the relative viability (H3255; first compound 0.01 µM) was 0.82 and the relative viability (H3255; first compound 0.03162 µM) was 0.952. The relative viability (H3255; first compound 0.1 µM) was 0.826, the relative viability (H3255; first compound 0.3162 µM) was 0.83 and the relative viability (H3255; first compound 1 µM) was 0.943. The relative viability (HCC-78; first compound 0.01 µM) was 0.492, the relative viability (HCC-78; first compound 0.03162 µM) was 0.457 and the relative viability (HCC-78; first compound 0.1 µM) was 0.544. It also gave a relative viability (HCC-78; first compound 0.3162 µM) of 0.581, a relative viability (HCC-78; first compound 1 µM) of 0.533 and a relative viability (HCC-827; first compound 0.01 µM) of 1.01. The relative viability (HCC-827; first compound 0.03162 µM) was 1.11, the relative viability (HCC-827; first compound 0.1 µM) was 1.03 and the relative viability (HCC-827; first compound 0.3162 µM) was 1.04. It also gave a relative viability (HCC-827; first compound 1 µM) of 1.03, a relative viability (LC-2-ad; first compound 0.01 µM) of 0.89 and a relative viability (LC-2-ad; first compound 0.03162 µM) of 1.03. For the same molecule, the relative viability (LC-2-ad; first compound 0.1 µM) was 0.921, the relative viability (LC-2-ad; first compound 0.3162 µM) was 0.877 and the relative viability (LC-2-ad; first compound 1 µM) was 0.795. The relative viability (LCLC-97TM1; first compound 0.01 µM) was 0.905, the relative viability (LCLC-97TM1; first compound 0.03162 µM) was 0.926 and the relative viability (LCLC-97TM1; first compound 0.1 µM) was 0.937. For the same molecule, the relative viability (LCLC-97TM1; first compound 0.3162 µM) was 0.897, the relative viability (LCLC-97TM1; first compound 1 µM) was 0.92 and the relative viability (NCI-H1666; first compound 0.01 µM) was 0.907. It also gave a relative viability (NCI-H1666; first compound 0.03162 µM) of 0.917, a relative viability (NCI-H1666; first compound 0.1 µM) of 0.983 and a relative viability (NCI-H1666; first compound 0.3162 µM) of 0.883. It also gave a relative viability (NCI-H1666; first compound 1 µM) of 0.913, a relative viability (NCI-H1915; first compound 0.01 µM) of 1.12 and a relative viability (NCI-H1915; first compound 0.03162 µM) of 1.1. The relative viability (NCI-H1915; first compound 0.1 µM) was 1.16, the relative viability (NCI-H1915; first compound 0.3162 µM) was 1.11 and the relative viability (NCI-H1915; first compound 1 µM) was 1.06. The relative viability (NCI-H2087; first compound 0.01 µM) was 1.09, the relative viability (NCI-H2087; first compound 0.03162 µM) was 1.4 and the relative viability (NCI-H2087; first compound 0.1 µM) was 1.28. The relative viability (NCI-H2087; first compound 0.3162 µM) was 1.24, the relative viability (NCI-H2087; first compound 1 µM) was 1.2 and the relative viability (NCI-H2126; first compound 0.01 µM) was 1.16. The relative viability (NCI-H2126; first compound 0.03162 µM) was 1.22, the relative viability (NCI-H2126; first compound 0.1 µM) was 1.29 and the relative viability (NCI-H2126; first compound 0.3162 µM) was 1.2. The relative viability (NCI-H2126; first compound 1 µM) was 1.24, the relative viability (NCI-H2347; first compound 0.01 µM) was 0.963 and the relative viability (NCI-H2347; first compound 0.03162 µM) was 0.761. It also gave a relative viability (NCI-H2347; first compound 0.1 µM) of 0.675, a relative viability (NCI-H2347; first compound 0.3162 µM) of 0.855 and a relative viability (NCI-H2347; first compound 1 µM) of 1.05. It also gave a relative viability (NCI-H23; first compound 0.01 µM) of 1.02, a relative viability (NCI-H23; first compound 0.03162 µM) of 1.01 and a relative viability (NCI-H23; first compound 0.3162 µM) of 1.06. For the same molecule, the relative viability (NCI-H23; first compound 1 µM) was 0.919, the relative viability (NCI-H2405; first compound 0.01 µM) was 1.07 and the relative viability (NCI-H2405; first compound 0.03162 µM) was 1.07. For the same molecule, the relative viability (NCI-H2405; first compound 0.1 µM) was 1.12, the relative viability (NCI-H2405; first compound 0.3162 µM) was 1.03 and the relative viability (NCI-H2405; first compound 1 µM) was 1.02. It also gave a relative viability (NCI-H520; first compound 0.01 µM) of 0.896, a relative viability (NCI-H520; first compound 0.03162 µM) of 0.86 and a relative viability (NCI-H520; first compound 0.1 µM) of 0.725. For the same molecule, the relative viability (NCI-H520; first compound 0.3162 µM) was 0.774, the relative viability (NCI-H520; first compound 1 µM) was 0.734 and the relative viability (NCI-H647; first compound 0.01 µM) was 1.24. The relative viability (NCI-H647; first compound 0.03162 µM) was 1.34, the relative viability (NCI-H647; first compound 0.1 µM) was 1.34 and the relative viability (NCI-H647; first compound 0.3162 µM) was 1.24. It also gave a relative viability (NCI-H647; first compound 1 µM) of 1.08, a relative viability (NCI-H650; first compound 0.03162 µM) of 1.07 and a relative viability (NCI-H650; first compound 0.1 µM) of 0.918. It also gave a relative viability (NCI-H650; first compound 0.3162 µM) of 1.01, a relative viability (NCI-H650; first compound 1 µM) of 0.992 and a relative viability (NCI-H661; first compound 0.01 µM) of 0.996. It also gave a relative viability (NCI-H661; first compound 0.03162 µM) of 1.05, a relative viability (NCI-H661; first compound 0.1 µM) of 1.03 and a relative viability (NCI-H661; first compound 0.3162 µM) of 0.947. The relative viability (NCI-H661; first compound 1 µM) was 1.03, the relative viability (PC-14; first compound 0.01 µM) was 0.957 and the relative viability (PC-14; first compound 0.03162 µM) was 0.965. It also gave a relative viability (PC-14; first compound 0.1 µM) of 0.994, a relative viability (PC-14; first compound 0.3162 µM) of 0.987 and a relative viability (PC-14; first compound 1 µM) of 0.948. It also gave a relative viability (RERF-LC-KJ; first compound 0.01 µM) of 0.831, a relative viability (RERF-LC-KJ; first compound 0.03162 µM) of 0.876 and a relative viability (RERF-LC-KJ; first compound 0.1 µM) of 0.91. It also gave a relative viability (RERF-LC-KJ; first compound 0.3162 µM) of 0.852 and a relative viability (RERF-LC-KJ; first compound 1 µM) of 0.846.
